Assay results: paper PMC6040060, “Identification of a new alanine racemase in Salmonella Enteritidis and its contribution to pathogenesis” (Gut Pathogens, 2018)
Like-named read-outs stand apart in the source and are kept apart here.

Tests used:
DadX [1] = test system: T1, DadX; assay: coupled spectrophotometric assay, NADH at […] nm (L-alanine dehydrogenase); format: biochemical, Salmonella enterica subsp. enterica serovar Enteritidis; settings: D to L direction; 10 μM PLP, 2.5 mM NAD+, Tris-HCl pH 8.0, 37 °C
T1 construct: pET28a-dadX (NheI/XhoI), N-terminal 6xHis tag, E. coli BL21(DE3) Codon Plus, Ni-NTA purified

SEN3897 [2] = test system: T2, SEN3897; settings: read-out: D → L / Km; D to L direction; 10 μM PLP, 2.5 mM NAD+, Tris-HCl pH 8.0, 37 °C
T2 construct: gene alr

SEN3897 [3] = test system: T2, SEN3897; settings: read-out: L → D / Km; L to D direction; 10 μM PLP, Tris-HCl pH 8.0, 37 °C
DadX [4] = test system: T1, DadX; assay: coupled spectrophotometric assay, NADH at […] nm (D-amino acid aminotransferase / L-lactate dehydrogenase); format: biochemical, Salmonella enterica subsp. enterica serovar Enteritidis; settings: L to D direction; 10 μM PLP, Tris-HCl pH 8.0, 37 °C

Structure (SMILES) | Km (DadX [1]) | Km (SEN3897 [2]) | Km (SEN3897 [3]) | Km (DadX [4])
C[C@@H](N)C(=O)O [D-alanine] | 52.8 ± 3 mM | 35 ± 6 mM |  | 
C[C@H](N)C(=O)O [L-alanine] |  |  | 89.1 ± 10.2 mM | 58.9 ± 2.7 mM
